Assays:
Homo sapiens = species on record: Homo sapiens; test: Selectivity ratio of EC50 for agonist activity at human FPR1 transfected in CHO cells to EC50 for agonist activity at human FPR2 transfected in CHO cells; assay type: cell-based
fMet-Leu-Phe receptor [1] = biological target: T1, fMet-Leu-Phe receptor (Homo sapiens, UniProt P21462); test: Agonist activity at human FPR1 expressed in HL-60 cells assessed as increase in calcium mobilization by FLIPR analysis; assay type: functional, cell-based
T1 sequence (P21462 whole entry): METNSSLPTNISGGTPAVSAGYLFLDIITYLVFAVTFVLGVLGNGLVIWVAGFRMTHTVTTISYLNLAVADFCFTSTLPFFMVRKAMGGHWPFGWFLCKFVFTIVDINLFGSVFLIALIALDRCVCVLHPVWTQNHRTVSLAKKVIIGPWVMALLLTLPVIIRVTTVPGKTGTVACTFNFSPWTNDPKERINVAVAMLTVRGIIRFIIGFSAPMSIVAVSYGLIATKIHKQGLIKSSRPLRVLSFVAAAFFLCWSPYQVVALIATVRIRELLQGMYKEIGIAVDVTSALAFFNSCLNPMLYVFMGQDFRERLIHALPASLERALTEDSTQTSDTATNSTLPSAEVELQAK

[2] = biological target: T2, Formyl peptide receptor 2 (Mus musculus, UniProt O88536); test: Agonist activity at mouse FPR2
T2 sequence (O88536 whole entry): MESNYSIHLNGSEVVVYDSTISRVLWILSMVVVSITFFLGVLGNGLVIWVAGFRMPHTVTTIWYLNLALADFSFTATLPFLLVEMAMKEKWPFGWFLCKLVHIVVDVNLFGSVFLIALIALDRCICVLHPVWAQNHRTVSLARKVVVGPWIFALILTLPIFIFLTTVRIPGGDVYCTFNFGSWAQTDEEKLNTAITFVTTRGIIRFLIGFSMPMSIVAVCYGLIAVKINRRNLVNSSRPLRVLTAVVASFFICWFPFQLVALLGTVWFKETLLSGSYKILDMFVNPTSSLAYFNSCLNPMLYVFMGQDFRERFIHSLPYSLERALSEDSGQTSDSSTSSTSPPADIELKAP

fMet-Leu-Phe receptor [3] = biological target: T1, fMet-Leu-Phe receptor; test: Agonist activity at human FPR1 transfected in CHO cells by cAMP assay; assay type: functional, cell-based
[4] = biological target: T3, N-formyl peptide receptor 2 (Homo sapiens, UniProt P25090); test: Agonist activity at FPR2 (unknown origin) transfected in CHO cells by cAMP assay; assay type: functional, cell-based
T3 sequence (P25090 whole entry): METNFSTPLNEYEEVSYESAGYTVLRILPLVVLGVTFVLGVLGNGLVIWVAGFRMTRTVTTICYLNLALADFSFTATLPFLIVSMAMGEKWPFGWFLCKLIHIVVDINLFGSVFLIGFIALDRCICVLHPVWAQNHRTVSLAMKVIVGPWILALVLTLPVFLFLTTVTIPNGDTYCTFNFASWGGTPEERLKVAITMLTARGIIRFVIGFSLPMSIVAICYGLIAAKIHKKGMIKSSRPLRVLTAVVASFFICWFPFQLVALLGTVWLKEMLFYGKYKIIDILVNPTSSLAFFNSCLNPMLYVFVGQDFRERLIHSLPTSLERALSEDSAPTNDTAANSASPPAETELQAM

[5] = biological target: T3, N-formyl peptide receptor 2; test: Agonist activity at FPR2 (unknown origin) in HEK293 cells; assay type: functional, cell-based
[6] = biological target: T3, N-formyl peptide receptor 2; test: Agonist activity at human FPR2 expressed in CHO cells assessed as increase in calcium mobilization by Fluo-4 AM dye based fluorescence assay; assay type: functional, cell-based
[7] = biological target: T3, N-formyl peptide receptor 2; test: Agonist activity at FPR2 (unknown origin) expressed in CHO cells by cAMP assay; assay type: functional, cell-based
fMet-Leu-Phe receptor [8] = biological target: T4, fMet-Leu-Phe receptor (Mus musculus, UniProt P33766); test: Agonist activity at mouse FPR1; assay type: functional
T4 sequence (P33766 whole entry): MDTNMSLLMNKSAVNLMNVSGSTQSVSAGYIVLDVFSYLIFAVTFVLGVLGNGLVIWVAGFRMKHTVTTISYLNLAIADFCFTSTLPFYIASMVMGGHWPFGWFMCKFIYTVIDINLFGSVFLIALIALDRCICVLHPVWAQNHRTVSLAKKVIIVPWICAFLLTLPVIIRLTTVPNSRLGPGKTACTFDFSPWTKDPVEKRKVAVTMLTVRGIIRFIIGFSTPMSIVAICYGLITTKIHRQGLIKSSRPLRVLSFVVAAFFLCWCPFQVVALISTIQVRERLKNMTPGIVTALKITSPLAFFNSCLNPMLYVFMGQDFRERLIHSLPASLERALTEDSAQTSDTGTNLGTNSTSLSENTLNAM

fMet-Leu-Phe receptor [9] = biological target: T1, fMet-Leu-Phe receptor; test: Agonist activity at FPR1 (unknown origin) in HEK293 cells; assay type: functional, cell-based
[10] = biological target: T3, N-formyl peptide receptor 2; test: Agonist activity at human FPR2 expressed in HL-60 cells assessed as increase in calcium mobilization by FLIPR analysis; assay type: functional, cell-based

Work on `N#Cc1ccccc1-c1ccc(N2CC[C@@H](NC(=O)Nc3ccc(Cl)cc3F)C2=O)c(F)c1F` yielded a Ratio EC50 (Homo sapiens) of 14.
With `CP(C)(=O)c1ccccc1-c1ccc(N2CC[C@@H](NC(=O)Nc3ccc(Cl)cc3F)C2=O)c(F)c1F` the Ratio EC50 (Homo sapiens) was 490.
Molecule `COc1ccc(C2(CNC(=O)[C@H](Cc3c[nH]c4ccccc34)NC(=O)Nc3ccc([N+](=O)[O-])cc3)CCCCC2)nc1` has an EC50 (fMet-Leu-Phe receptor [1]) of 4100 nM.
`O=C(O)[C@@H]1C2CCC([C@@H]1C(=O)Nc1ccc(Br)cc1)C21CC1` (some centres not stated) showed an EC50 [2] of 280 nM.
`COc1cc(OC)cc(-n2c(=O)c(NC(=O)c3ccc(OC(F)F)cc3)c(-c3c(F)cc(OC)cc3F)n2C)c1` gave an EC50 (fMet-Leu-Phe receptor [3]) of 10 nM and a Ratio EC50 (Homo sapiens) of 3400.
`CCP(=O)(CC)c1ccccc1-c1ccc(N2CC[C@@H](NC(=O)Nc3ccc(Cl)cc3F)C2=O)c(F)c1F` was tested, and the Ratio EC50 (Homo sapiens) was 350.
`COc1cc(C2CCNCC2)nc(-n2c(=O)c(NC(=O)c3ccc(OC(F)F)cc3)c(-c3c(F)cc(OC)cc3F)n2C)c1` showed an EC50 (fMet-Leu-Phe receptor [3]) greater than 10000 nM.
`O=C(CN1C(=O)C2C(C1=O)C1CCC2C12CC2)Nc1ccc(Br)cc1` (configuration not stated) showed an EC50 [4] of 120 nM.
Molecule `CCC(Nc1ccc(OC)cc1)C(=O)N/N=C(C)/C=C/c1ccccc1` (configuration not stated) has an EC50 [5] of 2600 nM.
For `CS(=O)(=O)c1ccccc1-c1ccc(N2CC[C@@H](NC(=O)Nc3ccc(Cl)cc3F)C2=O)c(F)c1F`, the Ratio EC50 (Homo sapiens) was 66.
`CC[C@H](C)[C@H](NC(=O)Nc1ccc(Br)cc1F)C(=O)O` gave an EC50 [6] of 87 nM.
`CS(=O)(=O)Nc1ccccc1-c1ccc(N2CC[C@@H](NC(=O)Nc3ccc(Cl)cc3F)C2=O)c(F)c1F` was tested, and the Ratio EC50 (Homo sapiens) was 340.
Molecule `COc1ccc(CC(Cc2ccc3c(c2)OCO3)NC(=O)Nc2ccc(Cl)cc2)cc1` (configuration not stated) has an EC50 (fMet-Leu-Phe receptor [1]) of 110 nM.
With `CC(=O)CCCCc1nc(NC(=O)OCc2ccccc2C)co1` the EC50 [5] was 0.3 nM.
`CSc1ccc(NC(=O)Nc2ccc3c(c2)C(=O)N(CCCN)C(C)C3)cc1` (configuration not stated) gave an EC50 [2] of 15 nM.
Work on `COc1ccc([C@@H]2CN(CCO)C(=O)[C@H]2NC(=O)Nc2ccc(Cl)cc2)cc1` yielded an EC50 [7] of 0.01 nM.
In the case of `CC(C)c1c(NC(=O)Nc2ccc(Cl)cc2)c(=O)n(-c2ccccc2)n1C`, the EC50 [2] is reported as 890 nM and the EC50 (fMet-Leu-Phe receptor [8]) is reported as 350 nM.
Work on `COc1ccc(NC(=O)N[C@@H]2CCCN(c3ccc(-c4ccccc4C(N)=O)cc3)C2=O)cc1` yielded an EC50 [7] of 5 nM.
`Cc1ccc(NC(=O)N[C@@H]2CCCN(c3ccc(-c4ccccc4C(N)=O)cc3)C2=O)cc1` showed an EC50 [7] of less than 5 nM.
`COc1ccc(C2(CNC(=O)[C@](C)(Cc3c[nH]c4ccccc34)NC(=O)Nc3ccc([N+](=O)[O-])cc3)CCCCC2)nc1` was tested, and the EC50 (fMet-Leu-Phe receptor [1]) was 300 nM.
`CS(=N)(=O)c1ccccc1-c1ccc(N2CC[C@@H](NC(=O)Nc3ccc(Cl)cc3F)C2=O)c(F)c1F` (some centres not stated) gave a Ratio EC50 (Homo sapiens) of 82.
Work on `COc1cc(F)c(-n2c(-c3ccccc3)cnc2NC(=O)c2ccc(OC(F)F)cc2)c(F)c1` yielded an EC50 (fMet-Leu-Phe receptor [9]) of 200 nM and an EC50 [5] of 4 nM.
`COc1cc(F)c(-c2c(NC(=O)c3ccc(OC(F)F)cc3)c(=O)n(-c3cccc(-n4ccc(C)n4)n3)n2C)c(F)c1` gave a Ratio EC50 (Homo sapiens) of 1.
Molecule `NC(=O)c1ccccc1-c1ccc(N2CCC[C@H](NC(=O)Nc3ccc(Cl)cc3)C2=O)cc1` has an EC50 [7] of 5 nM.
In the case of `C[C@H]1CC(c2ccccc2)=NN(CC(=O)Nc2ccc(Br)cc2)C1=O`, the EC50 [10] is reported as 11000 nM and the EC50 (fMet-Leu-Phe receptor [1]) is reported as 20000 nM.
`COC(=O)c1ccc(NC(=O)CSc2nc3cc(OC)ccc3[nH]2)cc1` was tested, and the EC50 (fMet-Leu-Phe receptor [9]) was 4700 nM.
For `COc1cccc(-n2c(=O)c(NC(=O)c3ccc(OC(F)F)cc3)c(-c3c(F)cc(OC)cc3F)n2C)c1`, the Ratio EC50 (Homo sapiens) was 0.6.
With `CSCC[C@H](NC=O)C(=O)N[C@@H](CC(C)C)C(=O)N[C@@H](Cc1ccccc1)C(=O)O` the EC50 (fMet-Leu-Phe receptor [8]) was 23000 nM.
